The record followed here is patent US20150087587A1, “Process for the Synchronization of Ovulation for Timed Breeding Without Heat Detection” (priority 2003, published 2015).

What all share (format): in vivo, swine
The subject of one assay is mature postpartum sows. Briefly: Intravulvar injection at estrus detection with AI in mature postpartum sows (Example 2). The following applies: 50 mcg deslorelin in SAIB intravulvar at estrus detection. As to the method:
Sows were assigned randomly in blocks of two to either control or to be injected intravulvar with 50 mcg of deslorelin in SAIB at the time of estrus detection for sows first detected in estrus in the a.m. and 12 hours later for those first detected in estrus in the p.m. Treated animals were bred AI upon detected estrus and again 24 hours later if still in estrus. Controls received a saline injection on first detected estrus behavior estrus detection and were bred according to the farm's normal procedures.

The test system of assay [1] is postpartum sows. Briefly: Timed injection 96 hours post-weaning and single timed insemination without estrus detection; pregnancy, embryos and CL (Example 3). The following applies: 50 mcg deslorelin in SAIB at 96 hours post-weaning. As to the method: Approximately 170 postpartum sows were randomly divided into two equal groups comprised of controls and treated. Following weaning, the controls were detected for estrus and bred following the normal standard operating procedures for the farms on which they resided. The treated sows received a 50 mcg dose of deslorelin in SAIB at 96 hours post-weaning and were bred with a single insemination 28+/−2 hours later with no regard to estrus detection. The sows were examined for pregnancy by ultrasound at 21 days and slaughtered around 28 days post breeding, The entire reproductive tract was removed and corpora lutea and embryos were counted.

Assay [2] relates to postpartum sows. Briefly: Litter size and pregnancy rate after treatment in postpartum sows at three farm sites (Example 4). Conditions: regardless of estrus detection. The text has this:
Postpartum sows were randomly distributed into three different groups comprised of Controls, Treatment 1, and Treatment 2, with the exception of Site 3, which was divided into two groups, Control and Treatment 2. Control sows were detected for estrus following weaning, and bred following the normal standard operating procedures for the farms on which they resided. Treatment 1 sows were detected for estrus following weaning, and received a 50 mcg dose of deslorelin in the morning when standing and were bred by AI 4 hours later and again at 24+/−2 hours later. Treatment 2 sows received a 50 mcg dose of deslorelin in SAIB at 96 or 120 hours post-weaning and were bred with a single insemination 28+/−2 hours later with no regard to estrus detection. […]

For `CCNC(=O)[C@@H]1CCCN1C(=O)[C@H](CCCN=C(N)N)NC(=O)[C@H](CC(C)C)NC(=O)[C@@H](Cc1c[nH]c2ccccc12)NC(=O)[C@H](Cc1ccc(O)cc1)NC(=O)[C@H](CO)NC(=O)[C@H](Cc1c[nH]c2ccccc12)NC(=O)[C@H](Cc1cnc[nH]1)NC(=O)[C@@H]1CCC(=O)N1` [Deslorelin, deslorelin], the “Pregnancy rates, Control versus Treated (in words)” value with mature postpartum sows is on record as “no significant difference”. Also, in the assay on postpartum sows [1] (single insemination), the “Embryo Survival” value amounted to 64%. Moreover, the “Pregnancy Rate” value in the assay on postpartum sows [1] (single insemination 28+/-2 hours later, no estrus detection) amounted to 71%. Further, the “Sows Pregnant” value with postpartum sows [1] (single insemination 28+/-2 hours later, 84 in group) was 60. The “Litter sizes (in words)” value with postpartum sows [2] is “normal litter sizes”.
